# Data: PMC9655717, “New Molecules of Diterpene Origin with Inhibitory Properties toward α-Glucosidase” (International Journal of Molecular Sciences, 2022)
# What was measured:
# MTT cytotoxicity assay = details: human
# Protocol: The cytotoxic activity of compounds was evaluated against four cancer cell lines KB, Hep-G2, Lu-1 and MCF-7, using colorimetric MTT assay. […]
# MTT assay was used to determine the cytotoxic activity of compounds with human cancer cell lines acquired from the American Type Culture Collection (ATCC): epidermoid carcinoma (KB, ATCC number CCL-17), hepatocellular carcinoma (HepG2, ATCC number HB-8065), lung adenocarcinoma LU-1 (ATCC number HTB - 57TM), breast adenocarcinoma MCF-7 (ATCC number HTB - 22TM. Cells were cultured in medium DMEM supplemented with 10% Fetal bovine serum (FBS), 1% Penicillin and Streptomycin and 1% L-glutamine, under a humidified atmosphere of 5% CO2 at 37°C.
# Compounds were dissolved in DMSO at 40 mg/mL and a series of dilutions for each compound was prepared to final concentrations of 256, 64, 16, 4 and 1 μg/mL. Cells were separated with trypsin and seeded in each well with 3 x10^4 cells per ml and were treated with sample different concentrations on 96-well plates. Untreated cells represented the controls. After 72h of treatment, an MTT solution (10 μl, 5 mg/mL) of phosphate buffer was added to each well for 4 h until intracellular purple formazan crystals are visible. Remove MTT and add DMSO solution (100 μL). The optical density of the solution was determined by Epoch™ Microplate Spectrophotometer at 540 nm. The inhibition ratio was calculated based on the optical densities from the three replicate […]
# (§1) are evaluated to have cytotoxic activity.
# [1] = biological target: T1, yeast α-GLy (α-glucosidase, Sigma G0660) (Saccharomyces cerevisiae, UniProt P53341); test: biochemical; type: biochemical; details: yeast α-glucosidase, 37°C, pH 6.8; read-out: IC50 ± SE, α-glucosidase inhibition
# T1 construct: purchased Sigma G0660
# Protocol: S1. Materials and Methods […]
# glucosidase inhibition assay. α-Glucosidase enzyme inhibition assay was carried out in a 96-well microplate. The method’s principle based on the hydrolyzed reaction of 4-nitrophenyl-α-D-glucopiranoside with α-glucosidase enzyme into yellow 4- […]
# p-Nitrophenyl α-D-Glucoside a- Gl ucosidas e α-D-Glucose + p- Nitrophenol α-Glucosidase inhibitory activity assay was performed following the modified method of Pistia Brueggeman and Hollingsworth with slight modification. Quinopimaric […]
# concentrations of 256, 64, 16, 4 and 1 µg/mL. In a 96-well plate, a reaction mixture containing 20 μL of phosphate buffer (100 mM; pH 6.8), 20 μL of α-glucosidase (0.3 U/mL, Sigma G0660) (this concentration was determined by a series of α-glucosidase […]
# linearity between the enzyme concentration and the absorbance of yellow color mixture after reaction which was approximately 5-fold higher than the back ground and at least […]
# concentrations was pre-incubated for 10 min at 37°C. Then 20 μL of […] p-nitrophenyl α-D-glucopyranoside (Sigma N1377) was added to the mixture as a substrate. After further incubation at 37°C for 30 min, the reaction was stopped by adding 80 μL of 0.1 […]
# solution were prepared using the phosphate buffer […]; pH 6.8. […]
# as a positive control and water as negative control. The yellow color produced was quantitated by colorimetric analysis and reading the absorbance at 410 nm. Each experiment was performed in triplicates, along with appropriate blanks. The solvent DMSO was use as negative control to evaluate its effect on α-glucosidase activity. […]
# or substrate in negative control. Back ground was determined by volume of buffer as […]
# The % inhibition has been obtained using the formula:
# % inhibition = {Absorbance (control) –Absorbance (sample)}/Absorbance (control) IC50 value is defined as the concentration of samples inhibiting 50% of α-glucosidase activity under the stated assay conditions. […]
# [2] = test system: Bacillus subtilis (ATCC 6633); test: Antimicrobial broth microdilution; type: cell-based; details: ATCC6633, B. subtilis
# Protocol: (§2) Table S2. The result of antimicrobial tests of compounds 38, 45, 48 and 50.
# (§3) Gram (+) strains Gram (-) strains Fungi
# (§4) Compound Values (µg/ml) S. aureus B. L. S. E. P. C. subtilis fermentum enterica coli aeruginosa albican
# (§5) The antimicrobial activity was determined by broth microdilution method as reported by. Broth dilution testing is one of the common methods used for determination of the MICs and IC50. The compounds are examined for visible bacterial growth as evidenced by turbidity. […]
# (§6) S1.5. In vitro antimicrobial activity study of compounds 38, 45, 48 and 50 The Gram-positive bacteria: Bacillus subtilis (ATCC 6633), Lactobacillus fermentum (N4), Staphylococcus aureus (ATCC 13709); Gram -negative bacteria: Escherichia coli (ATCC 25922), Pseudomonas aeruginosa (ATCC 15442), Salmonella enterica; Yeast: Candida albicans (ATCC 10231) were obtained from American Type Culture Collection. The bacterial […]
# (§7) Sabourand 2% dextrose broth, were purchased from Merck. […]
# (§8) remaining at –80 0 C. Before assay, they were activated by culture medium and, adjusted the concentration to 5x10^5 CFU/mL. 10 μL of each concentration of each test […]
# (§9) further incubated at 37 °C within 16-24h. The experiment was triplicated. Positive […]
# (§10) medium without bacteria as a negative control. Ampicillin was used as a reference […]
# (§11) inhibiting 50% the visible growth of the tested microorganisms. MIC, IC50 values are typically expressed as molar concentration. […]
# (§12) treated with sample different concentrations on 96-well plates. Untreated cells represented the controls. […]
# (§13) crystals are visible. Remove MTT and add DMSO solution (100 μL). The optical density […]
# as §1
# [3] = test system: Lactobacillus fermentum (N4); test: Antimicrobial broth microdilution; type: cell-based; details: L. fermentum
# Protocol: as §2, §3, §4, §5, §6, §7, §8, §9, §10, §11, §12, §13, §1
# [4] = test system: Escherichia coli (ATCC 25922); test: Antimicrobial broth microdilution; type: cell-based; details: ATCC25922, E. coli
# Protocol: as §2, §3, §4, §5, §6, §7, §8, §9, §10, §11, §12, §13, §1
# [5] = test system: Candida albicans (ATCC 10231); test: Antimicrobial broth microdilution; type: cell-based; details: ATCC10231, C. albican
# Protocol: as §2, §3, §4, §5, §6, §7, §8, §9, §10, §11, §12, §13, §1
# [6] = test system: Pseudomonas aeruginosa (ATCC 15442); test: Antimicrobial broth microdilution; type: cell-based; details: ATCC15442, P. aeruginosa
# Protocol: as §2, §3, §4, §5, §6, §7, §8, §9, §10, §11, §12, §13, §1
# Salmonella enterica = test: Antimicrobial broth microdilution; type: cell-based; details: S. enterica
# Protocol: as §2, §3, §4, §5, §6, §7, §8, §9, §10, §11, §12, §13, §1
# [7] = test system: Staphylococcus aureus (ATCC 13709); test: Antimicrobial broth microdilution; type: cell-based; details: ATCC13709, S. aureus
# Protocol: as §2, §3, §4, §5, §6, §7, §8, §9, §10, §11, §12, §13, §1
# T1 sequence (P53341 whole entry): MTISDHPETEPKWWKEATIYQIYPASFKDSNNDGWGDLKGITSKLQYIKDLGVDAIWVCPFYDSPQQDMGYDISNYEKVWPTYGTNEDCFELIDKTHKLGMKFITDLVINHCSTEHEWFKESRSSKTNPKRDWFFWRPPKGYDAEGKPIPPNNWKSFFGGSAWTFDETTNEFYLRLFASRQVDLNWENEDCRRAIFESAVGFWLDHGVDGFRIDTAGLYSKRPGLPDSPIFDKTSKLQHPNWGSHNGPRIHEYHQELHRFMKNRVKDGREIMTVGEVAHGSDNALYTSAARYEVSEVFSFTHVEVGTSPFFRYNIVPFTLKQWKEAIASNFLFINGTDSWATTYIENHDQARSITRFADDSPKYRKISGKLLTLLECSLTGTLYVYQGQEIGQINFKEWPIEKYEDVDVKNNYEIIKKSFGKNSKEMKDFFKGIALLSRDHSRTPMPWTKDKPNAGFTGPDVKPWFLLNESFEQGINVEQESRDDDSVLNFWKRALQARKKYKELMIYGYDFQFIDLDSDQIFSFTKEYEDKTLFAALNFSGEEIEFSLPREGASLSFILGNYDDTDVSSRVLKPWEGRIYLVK
compound,measurement,setting,value
"C#CCOC(=O)C1(C)CCCC2(C)C1CCC13C=C(C(C)C)C(CC12)c1c(O)cc2c(C(=O)OC)c(C)[nH]c2c13 (stereo not shown) [Compound 45, Methyl 7-propynyl 1-hydroxy-13-isopropyl-7,10a,2′-trimethyl-5,6,6b,7,8,9,10,10a,10b,11,12,13-dodecahydro-12,4b-ethenophenanthro [2,1-g]indole-7,1′-dicarboxylate]",IC50 at 72 h,MTT cytotoxicity assay; Hep-G2 hepatocellular carcinoma cells (ATCC HB-8065),47.2 ± 1 µg/mL
same,IC50 at 72 h,MTT cytotoxicity assay; KB epidermoid carcinoma cells (ATCC CCL-17),42.2 ± 0.84 µg/mL
same,IC50 at 72 h,MTT cytotoxicity assay; Lu-1 lung adenocarcinoma cells (ATCC HTB-57),16 ± 0.36 µg/mL
same,IC50 at 72 h,MTT cytotoxicity assay; MCF-7 breast adenocarcinoma cells (ATCC HTB-22),30.2 ± 0.8 µg/mL
same,IC50,[1],150 ± 8 nM
same,IC50,[2],> 256 µg/mL
same,MIC,[2],> 256 µg/mL
same,IC50,[3],> 256 µg/mL
same,MIC,[3],> 256 µg/mL
same,IC50,[4],> 256 µg/mL
same,MIC,[4],> 256 µg/mL
same,IC50,[5],> 256 µg/mL
same,MIC,[5],> 256 µg/mL
same,IC50,[6],> 256 µg/mL
same,MIC,[6],> 256 µg/mL
same,IC50,Salmonella enterica,> 256 µg/mL
same,MIC,Salmonella enterica,> 256 µg/mL
same,IC50,[7],> 256 µg/mL
same,MIC,[7],> 256 µg/mL
